Legend:
HeLa S3 cells = test: Test for growth inhibition of HeLa S3 cells; assay type: cell-based; conditions: Homo sapiens, HeLa S3, 72 h, HeLa S3 cells, 72 hours with test compound, Cell Proliferation Kit II; read-out: Cell growth inhibition (IC50)
Experimental: Test for Growth Inhibition of Hela S3 Cells
HeLa S3 cells prepared at 1×10^4 cells/ml in MEM culture medium containing 10% fetal bovine serum and 2 mM glutamine were added to each well of a 96-well microtiter plate (0.1 ml for each well). The cells were cultured at 37° C. in a CO2 incubator for 24 hours, and then 0.05 ml of test compound appropriately diluted with the above medium was added to each well, and then the mixture was cultured at 37° C. in a CO2 incubator for 72 hours. After the culture supernatant was removed, each well was washed with 0.1 ml of PBS buffer twice, and 0.1 ml of the aforementioned medium was added to each well again.
Cell Proliferation Kit II (Boehringer Mennheim) was used for measurement of cell number in each well. After a coloring reaction reagent was added, the plate was warmed to 37° C. in a CO2 incubator for 3 hours. Then, absorbances at 490 nm and 655 nm were measured by a microplate reader, and a value (difference of absorbance) was calculated for each well by subtracting the absorbance at […] from the absorbance at 490 nm. By comparing the differences of absorbance for cells without treatment and cells treated with a test compound at a known concentration, a concentration of test compound which inhibited the cell growth by 50% was calculated, and the value obtained was determined as IC50. The values of RNR inhibitory activity obtained in Example 8, and the values of cell growth inhibitory activity obtained in Example 9 are shown in the following tables (the compound numbers used in the tables correspond to the compound numbers shown in the aforementioned tables).

[1] = system: human ovary cancer A2780 cells; test: Antineoplastic effect against human ovary cancer A2780 cells transplanted to nude mice; assay type: in vivo, nude mice BALB/cAJcl-nu; conditions: Mus musculus, ip, A2780 s.c. in nude mice, read-out: Antitumor activity T/C
From the text: Antineoplastic Effect Against Human Ovary Cancer A2780 Cells
2 mm cubes (tumor fragments of 8 mm^3) of human ovary cancer A2780 cells were subcutaneously transplanted to nude mice BALB/cAJcl-nu (CLEA JAPAN) in the abdomens. When the tumor volume reached to from 50 to 300 mm^3 after the transplantation, the mice were arbitrarily divided into groups each consisting of 5 mice, and intraperitoneally administered with a drug solution once a day for 5 days. After weighing compounds, the drug solution was prepared before use by dissolving the drug in 99.5% ethanol (final concentration: 5%, analytical grade, Kanto Kagaku) or N,N-dimethylacetamide (final concentration: 5%, analytical grade, Kanto Kagaku), adding CREMOPHOR EL (a derivative of caster oil and ethylene oxide, final concentration: 10%, Sigma Chemical) to the solution, and suspending the solution in physiological saline (Otsuka Physiological Saline for Injection, Otsuka Pharmaceutical). For evaluation of the effect, a tumor volume was calculated in accordance with Equation 1, a ratio of tumor volume (V) after the administration of drug solution to tumor volume (V0) before the administration of drug solution was calculation (V/V0), and the ratio was compared with that for the untreated group to determine T/C (Equation 2). In the table, administration dose, T/C and evaluation day are shown. [formula]

[2] = molecular target: T1, human RNR (purified R1 and R2 subunits) (Homo sapiens, UniProt P23921+P31350); test: In vitro measurement of human RNR inhibitory activity (conversion of CDP to dCDP, HPLC); assay type: biochemical; conditions: 100 μM CDP, 37° C., 30 minutes, read-out: RNR Inhibition (IC50)
T1 construct: made in house; host or cells: Escherichia coli BL21(λDE3)pLysS, plasmids pETR1 and pETR2 (pET3a backbone)
T1 sequence (P23921 1-792): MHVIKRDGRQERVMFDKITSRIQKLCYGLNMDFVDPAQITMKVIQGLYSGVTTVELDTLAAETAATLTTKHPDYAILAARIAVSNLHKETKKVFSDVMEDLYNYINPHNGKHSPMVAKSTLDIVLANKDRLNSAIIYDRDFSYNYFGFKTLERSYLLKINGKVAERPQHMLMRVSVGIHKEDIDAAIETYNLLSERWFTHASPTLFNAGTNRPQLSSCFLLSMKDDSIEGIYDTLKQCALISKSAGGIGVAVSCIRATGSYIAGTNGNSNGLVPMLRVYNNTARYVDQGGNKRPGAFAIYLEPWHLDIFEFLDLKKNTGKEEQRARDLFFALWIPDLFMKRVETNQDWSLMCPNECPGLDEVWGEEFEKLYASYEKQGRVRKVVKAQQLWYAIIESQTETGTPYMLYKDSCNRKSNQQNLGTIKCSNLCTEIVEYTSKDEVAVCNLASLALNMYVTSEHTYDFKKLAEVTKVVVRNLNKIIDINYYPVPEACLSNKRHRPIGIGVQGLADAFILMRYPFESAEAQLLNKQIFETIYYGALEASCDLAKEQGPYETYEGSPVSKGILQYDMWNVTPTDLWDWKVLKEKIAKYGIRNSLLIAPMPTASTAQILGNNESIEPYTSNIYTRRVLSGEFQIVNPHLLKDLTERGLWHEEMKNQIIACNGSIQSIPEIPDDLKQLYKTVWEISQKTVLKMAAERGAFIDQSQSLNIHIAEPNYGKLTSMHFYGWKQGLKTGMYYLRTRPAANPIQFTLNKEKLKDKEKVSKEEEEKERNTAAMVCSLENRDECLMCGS
T1 sequence (P31350 1-389): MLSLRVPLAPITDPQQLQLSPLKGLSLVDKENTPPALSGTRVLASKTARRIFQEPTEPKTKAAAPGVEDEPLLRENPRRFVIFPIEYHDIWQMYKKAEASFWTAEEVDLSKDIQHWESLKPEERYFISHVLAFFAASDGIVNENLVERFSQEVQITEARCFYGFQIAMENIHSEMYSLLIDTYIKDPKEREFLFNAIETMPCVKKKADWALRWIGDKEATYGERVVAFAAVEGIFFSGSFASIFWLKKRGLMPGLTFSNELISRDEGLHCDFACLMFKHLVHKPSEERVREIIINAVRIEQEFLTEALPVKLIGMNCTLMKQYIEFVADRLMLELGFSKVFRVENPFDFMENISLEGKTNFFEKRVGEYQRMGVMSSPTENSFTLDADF

Oc1ccc(SCCN(O)CCSc2ccc(O)cc2)cc1 [Compound 48] was tested, and the IC50 (HeLa S3 cells) was 5.16 µM, the response vs control in vivo at 500 mg/kg/day ([1]; 168 h, 500 mg/kg/day intraperitoneally once a day for 5 days, evaluation day 7) was 54% and the IC50 [2] was 1.73 µM.

For Oc1ccc(SCC(O)CSc2ccc(O)cc2)cc1 [Compound 156], the IC50 (HeLa S3 cells) was 5.45 µM and the IC50 [2] was 2.27 µM.

With Oc1ccc(SCSCSc2ccc(O)cc2)cc1 [Compound 158] the IC50 (HeLa S3 cells) was 12.7 µM and the IC50 [2] was 1.42 µM.

Compound Oc1ccc(SCC=CCSc2ccc(O)cc2)cc1 [Compound 159] has an IC50 (HeLa S3 cells) of 6.89 µM and an IC50 [2] of 0.69 µM.

In the case of Oc1ccc(SCC#CCSc2ccc(O)cc2)cc1 [Compound 160], the IC50 (HeLa S3 cells) is reported as 20.1 µM and the IC50 [2] is reported as 0.95 µM.

Oc1ccc(SCc2ccccc2CSc2ccc(O)cc2)cc1 [Compound 161] gave an IC50 (HeLa S3 cells) of 34.2 µM and an IC50 [2] of 1.13 µM.

Compound Oc1ccc(SCCOCOCCSc2ccc(O)cc2)cc1 [Compound 162] has an IC50 (HeLa S3 cells) of 3.7 µM and an IC50 [2] of 1.7 µM.

Oc1ccc(SCCOCCOCCSc2ccc(O)cc2)cc1 [Compound 163] gave an IC50 (HeLa S3 cells) of 5.17 µM and an IC50 [2] of 2.1 µM.

For Oc1ccc(SCC(O)COCCOCC(O)CSc2ccc(O)cc2)cc1 (stereo not shown) [Compound 166], the IC50 (HeLa S3 cells) was 31.2 µM and the IC50 [2] was 3.09 µM.

Oc1ccc(SCCOCCOCCOCCSc2ccc(O)cc2)cc1 [Compound 171] gave an IC50 (HeLa S3 cells) of 30 µM and an IC50 [2] of 8.01 µM.

With Oc1ccc(SCCOCCOCCOCCOCCSc2ccc(O)cc2)cc1 [Compound 172] the IC50 (HeLa S3 cells) was 19.5 µM and the IC50 [2] was 2.64 µM.

For Oc1ccc(SCCOCCOCCOCCOCCOCCSc2ccc(O)cc2)cc1 [Compound 173], the IC50 (HeLa S3 cells) was 12.9 µM and the IC50 [2] was 3.63 µM.

CC1(C)OC(CSc2ccc(O)cc2)C(CSc2ccc(O)cc2)O1 (stereo not shown) [Compound 183] gave an IC50 (HeLa S3 cells) of 10.4 µM and an IC50 [2] of 0.42 µM.

In the case of Oc1ccc(SCCC(O)CSc2ccc(O)cc2)cc1 (stereo not shown) [Compound 184], the IC50 (HeLa S3 cells) is reported as 2.46 µM and the IC50 [2] is reported as 0.3 µM.

O=C(CSc1ccc(O)cc1)C(=O)CSc1ccc(O)cc1 [Compound 186] showed an IC50 (HeLa S3 cells) of 56 µM and an IC50 [2] of 11.9 µM.

O=C(NCCCSc1ccc(O)cc1)C1C2C=CC(C2)C1C(=O)NCCCSc1ccc(O)cc1 (stereo not shown) [Compound 191] showed an IC50 (HeLa S3 cells) of 4.78 µM and an IC50 [2] of 1.36 µM.

O=C(NCCCSc1ccc(O)cc1)C1(C(=O)NCCCSc2ccc(O)cc2)CCCC1 [Compound 192] was tested, and the IC50 (HeLa S3 cells) was 4.51 µM and the IC50 [2] was 2.85 µM.

Work on CC(=O)Oc1ccc(SCCN(CCSc2ccc(OC(C)=O)cc2)CC(N)=O)cc1 [Compound 193] yielded an IC50 (HeLa S3 cells) of 0.36 µM and a response vs control in vivo at 250 mg/kg/day ([1]; 96 h, 250 mg/kg/day intraperitoneally once a day for 5 days, evaluation day 4) of 46%.

Oc1ccc(SCCN(CCSc2ccc(O)cc2)CCC2OCCCO2)cc1 [Compound 194] was tested, and the IC50 (HeLa S3 cells) was 11.7 µM and the IC50 [2] was 0.84 µM.

CS(=O)(=O)NCCN(CCSc1ccc(O)cc1)CCSc1ccc(O)cc1 [Compound 195] showed an IC50 (HeLa S3 cells) of 3.16 µM and an IC50 [2] of 0.55 µM.

Work on Oc1ccc(SCCN(CCSc2ccc(O)cc2)Cc2c[nH]cn2)cc1 [Compound 196] yielded an IC50 (HeLa S3 cells) of 7.08 µM and an IC50 [2] of 1.52 µM.

— patent publication US6608061B2, “Bisaryl compound and medicament for cancer treatment comprising the same” (Kyoma Hakko Kogyo Co., Ltd., priority 1997, dated 2003)
